Reference: PMC3919030 (Journal of molecular biology, 2013)

Assays:
Experiment in all cases: size exclusion chromatography
Type in all cases: binding
SsoVps4 [1] = target: T1, SsoVps4 (Saccharolobus solfataricus, UniProt Q97ZJ7); settings: 2 mM MgCl2, pH 7.4, 4 °C; 1 mM ADP
T1 sequence (Q97ZJ7 1-372): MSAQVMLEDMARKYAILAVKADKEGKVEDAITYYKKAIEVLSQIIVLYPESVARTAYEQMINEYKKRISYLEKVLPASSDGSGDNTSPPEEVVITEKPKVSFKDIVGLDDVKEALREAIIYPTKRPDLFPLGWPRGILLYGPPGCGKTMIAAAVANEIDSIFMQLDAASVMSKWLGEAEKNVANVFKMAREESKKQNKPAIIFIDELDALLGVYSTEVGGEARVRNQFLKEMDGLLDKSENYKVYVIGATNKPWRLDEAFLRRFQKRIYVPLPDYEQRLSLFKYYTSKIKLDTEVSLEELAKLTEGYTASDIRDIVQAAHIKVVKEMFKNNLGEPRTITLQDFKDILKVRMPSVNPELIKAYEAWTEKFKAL

SsoVps4 [2] = target: SsoVps4 (Saccharolobus solfataricus, UniProt Q97ZJ7, E206Q); settings: 2 mM MgCl2, pH 7.4, 4 °C, Walker B mutant
Vps4p = target: T2, Vps4p (Saccharomyces cerevisiae, UniProt P52917, E233Q); settings: 2 mM MgCl2, pH 7.4, 4 °C; 1 mM ATP; Walker B mutant
T2 sequence (P52917 1-437 E233Q): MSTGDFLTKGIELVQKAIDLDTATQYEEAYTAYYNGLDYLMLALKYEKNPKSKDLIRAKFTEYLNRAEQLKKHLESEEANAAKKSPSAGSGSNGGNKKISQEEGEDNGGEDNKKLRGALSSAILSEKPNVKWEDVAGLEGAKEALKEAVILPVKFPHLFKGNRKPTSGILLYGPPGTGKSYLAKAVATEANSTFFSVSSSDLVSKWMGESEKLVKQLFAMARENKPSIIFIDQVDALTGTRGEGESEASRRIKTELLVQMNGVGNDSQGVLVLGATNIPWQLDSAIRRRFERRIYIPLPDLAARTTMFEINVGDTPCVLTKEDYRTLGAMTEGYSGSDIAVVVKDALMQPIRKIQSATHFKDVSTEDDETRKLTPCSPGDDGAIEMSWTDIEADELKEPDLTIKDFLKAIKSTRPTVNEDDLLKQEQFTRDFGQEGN

Row | SMILES | size exclusion chromatography (nucleotide-induced shift of oligomer) (SsoVps4 [1]) | size exclusion chromatography (nucleotide-induced shift of oligomer) (SsoVps4 [2]; 1 mM ADP) | size exclusion chromatography (nucleotide-bound oligomer) (Vps4p) | size exclusion chromatography (nucleotide-induced shift of oligomer) (SsoVps4 [2]; 1 mM ATP)
1 | Nc1ncnc2c1ncn2[C@@H]1O[C@H](COP(=O)(O)OP(=O)(O)O)[C@@H](O)[C@H]1O [ADP] | both proteins migrated slightly more rapidly when bound to ADP than ATP | both wild type and E206Q SsoVps4 eluted as lower molecular weight complexes |  | 
2 | Nc1ncnc2c1ncn2[C@@H]1O[C@H](COP(=O)(O)OP(=O)(O)OP(=O)(O)O)[C@@H](O)[C@H]1O [ATP] |  |  | ATP-bound Vps4p(E233Q) migrated more rapidly than the wild type protein | both wild type and E206Q SsoVps4 eluted as lower molecular weight complexes
